This note sets out measurements from patent publication US10023602B2, “Hamamelitannin analogues and uses thereof” (Universiteit Gent, priority 2014, dated 2018).

The structures appear in SMILES notation.

The test system of assay [1] is methicillin resistant S. aureus Mu50 strain (S. aureus ATCC700699) biofilm. Description: Biofilm susceptibility to vancomycin, pre-treatment regimen (biofilm formed in presence of compound, then vancomycin). Particulars: for Pretreat (100 μM): percentage Colony Forming Units (CFU's) per biofilm: compound 100 μM during biofilm formation; for Pretreat (100 μM): percentage Colony Forming Units (CFU's) per biofilm / Pretreat. (25 μM): percentage Colony Forming Units (CFU's) per biofilm: then VAN 20 μg/ml, compared to the untreated (negative) control; for Pretreat. (25 μM): percentage Colony Forming Units (CFU's) per biofilm: compound 25 μM during biofilm formation; for EC50: concentration needed to get 50% killing compared to antibiotic alone (VAN 20 μg/ml) and complete killing, read-out: Pretreat. (EC50). Format: cell-based. The protocol:
(§1) The compounds were evaluated for their effect on biofilm susceptibility both under pre-treatment and combination treatment regimens. In the pre-treatment regimen, a methicillin resistant S. aureus Mu50 strain (S. aureus ATCC700699) was allowed to form biofilms in the presence of the compounds after which the biofilm was treated with vancomycin (20 μg/ml). In the combination treatment regimen, S. aureus Mu50 was allowed to form a mature biofilm after which it was treated with a combination of a compound and vancomycin. In brief, 100 μl of a standardized inoculum (10^8 CFU/ml) was placed in the wells of a round-bottom 96-well microtiter plate. The cells were allowed to adhere to the plate in the absence (combined treatment) or presence (pre-treatment) of the compounds (0.1-250 μM) for 4 h at 37° C. After this adhesion step, non-adhered cells were removed, the wells were rinsed and fresh medium with or without the compounds was added. The plates were incubated for an additional 20 h at 37° C. After this, the medium was removed, biofilms were rinsed with physiological saline and vancomycin (20 μg/ml) was added alone (pre-treatment) or with the compounds (combined treatment, 0.1-250 μM). Plates were placed at 37° C. for 24 h after which medium was removed, wells were rinsed and the surviving cells in each condition were collected. The number of surviving cells under each condition was compared to vancomycin treatment alone and was assessed by conventional plating. The REF compound (hamamelitannin) was also observed for its effect on biofilm susceptibility towards other antibiotics (incl. vancomycin, cefoxitin, tobramycin, cefazolin, cefalonium, daptomycin, linezolide and cephalexin). Biofilms were formed as described above and were treated with the antibiotics alone or in combination with the REF compound (250 μM). The number of surviving cells under each condition was compared to the untreated control biofilm and was assessed by conventional plating.

The test system is the same in assay [2]. The assay is described as follows: Biofilm susceptibility to vancomycin, combination treatment regimen (mature biofilm treated with compound plus vancomycin). Format: cell-based. Particulars: for Combin. (100 μM): percentage Colony Forming Units (CFU's) per biofilm: compound 100 μM together with VAN 20 μg/ml on mature biofilm; for Combin. (100 μM): percentage Colony Forming Units (CFU's) per biofilm / Combin. (25 μM): percentage Colony Forming Units (CFU's) per biofilm: compared to the untreated (negative) control; for Combin. (25 μM): percentage Colony Forming Units (CFU's) per biofilm: compound 25 μM together with VAN 20 μg/ml on mature biofilm; for EC50: concentration needed to get 50% killing compared to antibiotic alone (VAN 20 μg/ml) and complete killing, read-out: Combin. (EC50). The method, then:
as §1

Turning to `O=C(NC[C@]1(O)CO[C@H](CN2C(=O)c3ccc(Cl)cc3C2=O)[C@H]1O)c1ccccc1` [compound 227, N-(((3S,4R,5R)-5-((5-chloro-1,3-dioxoisoindolin-2-yl)methyl)-3,4-dihydroxytetrahydrofuran-3-yl)methyl)benzamide], the “Pretreat (100 μM): percentage Colony Forming Units (CFU's) per biofilm” value in assay [1] is recorded as 77.57 percentage. The “Combin. (100 μM): percentage Colony Forming Units (CFU's) per biofilm” value in assay [2] is listed as 61.81 percentage.
On the same counts, the results for `COc1ccccc1C(=O)NC[C@H]1OC[C@@](O)(CNC(=O)c2ccccc2)[C@@H]1O` [compound 172, N-(((2R,3R,4S)-4-(benzamidomethyl)-3,4-dihydroxytetrahydrofuran-2-yl)methyl)-2-methoxybenzamide] are 15.37 percentage and 31.40 percentage.
Consider `O=C(NC[C@]1(O)CO[C@H](CNC(=O)c2ccccc2Cl)[C@H]1O)c1ccc(Cl)cc1` [compound 234, 2-chloro-N-(((2R,3R,4S)-4-((4-chlorobenzamido)methyl)-3,4-dihydroxytetrahydrofuran-2-yl)methyl)benzamide], for which the “Pretreat. (25 μM): percentage Colony Forming Units (CFU's) per biofilm” value in assay [1] is reported as 61.12 percentage. Further, the “Combin. (25 μM): percentage Colony Forming Units (CFU's) per biofilm” value in assay [2] is reported as 56.96 percentage.
For the molecule `O=C(NC[C@]1(O)CO[C@H](CNC(=O)c2cccc3ccccc23)[C@H]1O)c1ccccc1` [compound 184, N-(((2R,3R,4S)-4-(benzamidomethyl)-3,4-dihydroxytetrahydrofuran-2-yl)methyl)-1-naphthamide], in assay [1], the “Pretreat (100 μM): percentage Colony Forming Units (CFU's) per biofilm” value is reported as 33.91 percentage. Besides, the “Combin. (100 μM): percentage Colony Forming Units (CFU's) per biofilm” value in assay [2] was determined as 40.23 percentage.
On the same counts, the results for `COc1cccc(C(=O)NC[C@H]2OC[C@@](O)(CNC(=O)c3ccccc3)[C@@H]2O)c1` [compound 163, N-(((2R,3R,4S)-4-(benzamidomethyl)-3,4-dihydroxytetrahydrofuran-2-yl)methyl)-3-methoxybenzamide] are 28.44 percentage and 27.21 percentage.
For `O=C(NC[C@]1(O)CO[C@H](CNC(=O)c2ccccc2Cl)[C@H]1O)c1ccc(-c2ccccc2)cc1` [compound 252, N-(((3S,4R,5R)-5-((2-chlorobenzamido)methyl)-3,4-dihydroxytetrahydrofuran-3-yl)methyl)-[1,1′-biphenyl]-4-carboxamide], in assay [1], the “Pretreat (100 μM): percentage Colony Forming Units (CFU's) per biofilm” value stood at 2.25 percentage and the EC50 was determined as 11.8 µM. In assay [2], the “Combin. (100 μM): percentage Colony Forming Units (CFU's) per biofilm” value is 29.40 percentage and the EC50 came to 69.2 µM.
On to `O=C(NC[C@]1(O)CO[C@H](CNC(=O)c2ccccc2-c2ccccc2)[C@H]1O)c1ccccc1` [compound 177, N-(((2R,3R,4S)-4-(benzamidomethyl)-3,4-dihydroxytetrahydrofuran-2-yl)methyl)-[1,1′-biphenyl]-2-carboxamide], for which, in assay [1], the “Pretreat (100 μM): percentage Colony Forming Units (CFU's) per biofilm” value is given as 15.07 percentage. Further, the “Combin. (100 μM): percentage Colony Forming Units (CFU's) per biofilm” value in assay [2] was determined as 13.23 percentage.
The like results for `COc1ccc(C(=O)NC[C@H]2OC[C@@](O)(CNC(=O)c3ccccc3)[C@@H]2O)cc1` [compound 154, N-(((2R,3R,4S)-4-(benzamidomethyl)-3,4-dihydroxytetrahydrofuran-2-yl)methyl)-4-methoxybenzamide] were, in that order, 19.34 percentage and 22.56 percentage.
Take `O=C(NC[C@]1(O)CO[C@H](CNC(=O)c2ccccc2Cl)[C@H]1O)c1ccccc1` [compound 171, N-(((2R,3R,4S)-4-(benzamidomethyl)-3,4-dihydroxytetrahydrofuran-2-yl)methyl)-2-chlorobenzamide]: in assay [1], the “Pretreat (100 μM): percentage Colony Forming Units (CFU's) per biofilm” value turned out to be 11.56 percentage and the EC50 is 0.389 µM. Further, in assay [2], the “Combin. (100 μM): percentage Colony Forming Units (CFU's) per biofilm” value stood at 7.776 percentage and the EC50 was found to be 7.98 µM.
In the case of `Cc1cccc(C(=O)NC[C@H]2OC[C@@](O)(CNC(=O)c3ccccc3)[C@@H]2O)c1` [compound 160, N-(((2R,3R,4S)-4-(benzamidomethyl)-3,4-dihydroxytetrahydrofuran-2-yl)methyl)-3-methylbenzamide], the “Pretreat (100 μM): percentage Colony Forming Units (CFU's) per biofilm” value in assay [1] was 23.09 percentage. In addition, in assay [2], the “Combin. (100 μM): percentage Colony Forming Units (CFU's) per biofilm” value is given as 23.39 percentage.
As for `Cc1ccc(C(=O)NC[C@H]2OC[C@@](O)(CNC(=O)c3ccccc3)[C@@H]2O)cc1C` [compound 180, N-(((2R,3R,4S)-4-(benzamidomethyl)-3,4-dihydroxytetrahydrofuran-2-yl)methyl)-3,4-dimethylbenzamide], in assay [1], the “Pretreat (100 μM): percentage Colony Forming Units (CFU's) per biofilm” value was 79.13 percentage. Besides, in assay [2], the “Combin. (100 μM): percentage Colony Forming Units (CFU's) per biofilm” value was found to be 65.66 percentage.
On the same counts, the results for `O=C(NC[C@]1(O)CO[C@H](CNC(=O)c2cccnn2)[C@H]1O)c1ccccc1` [compound 206, N-(((2R,3R,4S)-4-(benzamidomethyl)-3,4-dihydroxytetrahydrofuran-2-yl)methyl)pyridazine-3-carboxamide] are 6.460 percentage and 15.17 percentage.
Regarding `O=C(NC[C@H]1OC(O)[C@@](O)(CNC(=O)c2ccc(O)c(O)c2)[C@@H]1O)c1ccc(O)c(O)c1` (stereo partly drawn) [compound 17, N,N′-(((2R,3R,4R)-3,4,5-trihydroxytetrahydrofuran-2,4-diyl)bis(methylene))bis(3,4-dihydroxybenzamide)], in assay [1], the “Pretreat (100 μM): percentage Colony Forming Units (CFU's) per biofilm” value is listed as 55.76 percentage and the EC50 amounted to 182 µM. Further, in assay [2], the “Combin. (100 μM): percentage Colony Forming Units (CFU's) per biofilm” value was 61.16 percentage and the EC50 is 169 µM.
For `CC(C)S(=O)(=O)NC[C@H]1OC[C@@](O)(CNC(=O)c2ccccc2)[C@@H]1O` [compound 213, N-(((3S,4R,5R)-3,4-dihydroxy-5-(((1-methylethyl)sulfonamido)methyl)tetrahydrofuran-3-yl)methyl)benzamide], in assay [1], the “Pretreat (100 μM): percentage Colony Forming Units (CFU's) per biofilm” value came out at 28.32 percentage. Besides, the “Combin. (100 μM): percentage Colony Forming Units (CFU's) per biofilm” value in assay [2] is 32.67 percentage.
Consider `O=C(NC[C@H]1OC[C@@](O)(CNC(=O)c2ccccc2)[C@@H]1O)c1ccnnc1` [compound 207, N-(((2R,3R,4S)-4-(benzamidomethyl)-3,4-dihydroxytetrahydrofuran-2-yl)methyl)pyridazine-4-carboxamide], for which, in assay [1], the “Pretreat (100 μM): percentage Colony Forming Units (CFU's) per biofilm” value was 6.950 percentage and the EC50 was 7.28 µM. For the same molecule, in assay [2], the “Combin. (100 μM): percentage Colony Forming Units (CFU's) per biofilm” value was 13.70 percentage and the EC50 is 8.54 µM.
For the molecule `CN(C)c1cccc(C(=O)NC[C@H]2OC[C@@](O)(CNC(=O)c3ccccc3)[C@@H]2O)c1` [compound 165, N-(((2R,3R,4S)-4-(benzamidomethyl)-3,4-dihydroxytetrahydrofuran-2-yl)methyl)-3-(dimethylamino)benzamide], in assay [1], the “Pretreat (100 μM): percentage Colony Forming Units (CFU's) per biofilm” value was 16.00 percentage. For the same molecule, in assay [2], the “Combin. (100 μM): percentage Colony Forming Units (CFU's) per biofilm” value was found to be 26.43 percentage.
On to `O=C(NC[C@]1(O)CO[C@H](CNC(=O)c2ccccc2Cl)[C@H]1O)c1cncnc1` [compound 248, N-(((3S,4R,5R)-5-((2-chlorobenzamido)methyl)-3,4-dihydroxytetrahydrofuran-3-yl)methyl)pyrimidine-5-carboxamide], for which, in assay [1], the “Pretreat. (25 μM): percentage Colony Forming Units (CFU's) per biofilm” value stood at 64.01 percentage. Also, in assay [2], the “Combin. (25 μM): percentage Colony Forming Units (CFU's) per biofilm” value was found to be 65.41 percentage.
`O=C(NC[C@]1(O)CO[C@H](CNC(=O)c2ccccn2)[C@H]1O)c1ccccc1` [compound 176, N-(((2R,3R,4S)-4-(benzamidomethyl)-3,4-dihydroxytetrahydrofuran-2-yl)methyl)picolinamide]: in assay [1], the “Pretreat (100 μM): percentage Colony Forming Units (CFU's) per biofilm” value is recorded as 21.56 percentage. Further, in assay [2], the “Combin. (100 μM): percentage Colony Forming Units (CFU's) per biofilm” value was 36.02 percentage.
As to `O=C(NC[C@H]1OC(O)[C@@](O)(CNC(=O)c2ccc(O)cc2)[C@@H]1O)c1ccc(O)cc1` (stereo partly drawn) [compound 20, N,N′-(((2R,3R,4R)-3,4,5-trihydroxytetrahydrofuran-2,4-diyl)bis(methylene))bis(4-hydroxybenzamide)], in assay [1], the “Pretreat (100 μM): percentage Colony Forming Units (CFU's) per biofilm” value is recorded as 19.78 percentage and the EC50 worked out at 85.6 µM. Also, in assay [2], the “Combin. (100 μM): percentage Colony Forming Units (CFU's) per biofilm” value is 27.23 percentage and the EC50 amounted to 52.3 µM.
